Here are results for 16 compounds from PubChem BioAssay AID180 (DTP/NCI, 2004).

Each structure is given as a SMILES string. Several values for one entry are separate records, joined by “and”; a condition that tells them apart may be missing. Identical values can stand only once.

What is called T/C is the ratio of treated to control.

This test concerns BDF1 mice, Adenocarcinoma 755 s.c., tumor weight T/C. In words: NCI In Vivo Anticancer Drug Screen. Data for tumor model Adenocarcinoma 755 (subcutaneous) in B6D2F1 (BDF1) mice. Particulars: endpoint: mean tumor weight, higher = larger tumour. The method, boiled down:
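Readout: T/C, i.e. treated-group measurement over vehicle-control measurement. Endpoint is survival or tumor size in tumor-bearing mice given compound.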

Setting [1] is: dose: 20.0 mg/kg/injection, schedule: Q01DX011 (ip), vehicle: carboxymethylcellulose (CMC).
Setting [2] is: dose: 40.0 mg/kg/injection, schedule: Q01DX011 (ip), vehicle: carboxymethylcellulose (CMC).
Setting [3] is: dose: 80.0 mg/kg/injection, schedule: Q01DX011 (ip), vehicle: carboxymethylcellulose (CMC).
The mark [4] stands for this setting: dose: 50.0 mg/kg/injection, schedule: Q01DX011 (sc), vehicle: steriod suspending solution.
Setting [5] is: dose: 25.0 mg/kg/injection, schedule: Q01DX011 (ip), vehicle: methylcellulose (MC).
[6] abbreviates: dose: 50.0 mg/kg/injection, schedule: Q01DX011 (ip), vehicle: methylcellulose (MC).
[7] abbreviates: dose: 100.0 mg/kg/injection, schedule: Q01DX011 (ip), vehicle: methylcellulose (MC).

`CC[C@]1(O)C[C@H]2CN(CCc3c([nH]c4ccccc34)[C@@](C(=O)OC)(c3cc4c(cc3OC)N(C=O)[C@H]3[C@@](O)(C(=O)OC)[C@H](OC(C)=O)[C@]5(CC)C=CCN6CC[C@]43[C@@H]65)C2)C1`: the T/C reads like this: (dose: 0.06 mg/kg/injection, schedule: Q01DX011 (ip), vehicle: saline) 95 % of control; (dose: 0.12 mg/kg/injection, schedule: Q01DX011 (ip), vehicle: saline) 173 % of control; (dose: 0.25 mg/kg/injection, schedule: Q01DX011 (ip), vehicle: saline) 54 % of control.
Consider `O=S(=O)(O)C(Nc1ccccc1)c1ccccc1` (configuration not stated), for which the T/C runs as follows: under setting [1], 119 % of control; under setting [2], 91 % of control; under setting [3], 70 % of control.
Regarding `CCC(=O)O[C@H]1CC[C@H]2[C@@H]3CCC4=CC(=O)CC[C@]4(C)[C@H]3[C@@H](O)C[C@]12C`, the T/C is 121 % of control under setting [4] and 101 % of control (dose: 200.0 mg/kg/injection, schedule: Q01DX011 (sc), vehicle: steriod suspending solution).
In the case of `O=P1(N(CCF)CCF)NCCCO1` (configuration not stated), the T/C by setting is: (dose: 3.75 mg/kg/injection, schedule: Q01DX011 (ip), vehicle: saline) 62 % of control; (dose: 7.5 mg/kg/injection, schedule: Q01DX011 (ip), vehicle: saline) 79 % of control; (dose: 15.0 mg/kg/injection, schedule: Q01DX011 (ip), vehicle: saline) 26 % of control.
As for `O=C(O)CC(Nc1ncnc2nc[nH]c12)C(=O)O` (configuration not stated), the T/C was 105 % of control (dose: 12.0 mg/kg/injection, schedule: Q01DX011 (ip), vehicle: methylcellulose (MC)); 98 % of control under setting [5]; 103 % of control under setting [6]; 45 % of control under setting [7].
As to `C/C(=N\NC(=O)c1ccncc1)c1cc(Cl)ccc1Cl`, the T/C (dose: 30.0 mg/kg/injection, schedule: Q01DX011 (ip), vehicle: methylcellulose (MC)) is 51 % of control and the T/C (dose: 60.0 mg/kg/injection, schedule: Q01DX011 (ip), vehicle: methylcellulose (MC)) is 27 % of control.
For `CC(=O)N[C@H]1CC[C@H]2[C@@H]3CCC4=CC(=O)CC[C@]4(C)[C@H]3CC[C@]12C`, the T/C by setting is: (dose: 5.0 mg/kg/injection, schedule: Q01DX011 (sc), vehicle: steriod suspending solution) 99 % of control; under setting [4], 111 % of control; (dose: 100.0 mg/kg/injection, schedule: Q01DX011 (sc), vehicle: steriod suspending solution) 89 % of control.
Consider `N#CCCNC(=O)Nc1ccccc1`, for which the T/C by setting is: (dose: 15.0 mg/kg/injection, schedule: Q01DX011 (ip), vehicle: methylcellulose (MC)) 63 % of control; (dose: 31.0 mg/kg/injection, schedule: Q01DX011 (ip), vehicle: methylcellulose (MC)) 74 % of control; (dose: 62.0 mg/kg/injection, schedule: Q01DX011 (ip), vehicle: methylcellulose (MC)) 58 % of control; (dose: 125.0 mg/kg/injection, schedule: Q01DX011 (ip), vehicle: methylcellulose (MC)) 101 % of control; (dose: 250.0 mg/kg/injection, schedule: Q01DX011 (ip), vehicle: methylcellulose (MC)) 93 % of control.
As for `c1ccc2nc(-c3cc4ccccc4s3)ccc2c1`, the T/C by setting is: (dose: 133.0 mg/kg/injection, schedule: Q01DX011 (ip), vehicle: carboxymethylcellulose (CMC)) 42 % of control; (dose: 133.0 mg/kg/injection, schedule: Q01DX011 (ip), vehicle: saline) 42 % of control; (dose: 200.0 mg/kg/injection, schedule: Q01DX011 (ip), vehicle: carboxymethylcellulose (CMC)) 53 % of control; (dose: 200.0 mg/kg/injection, schedule: Q01DX011 (ip), vehicle: saline) 39 % of control; (dose: 300.0 mg/kg/injection, schedule: Q01DX011 (ip), vehicle: carboxymethylcellulose (CMC)) 24 % of control; (dose: 300.0 mg/kg/injection, schedule: Q01DX011 (ip), vehicle: saline) 34 % of control. The T/C (dose: 450.0 mg/kg/injection, schedule: Q01DX011 (ip), vehicle: saline) was 21 % of control.
On to `Cn1c(=O)c2[nH]c(N/N=C/c3ccc(F)cc3)nc2n(C)c1=O`, for which the T/C was 93 % of control (dose: 30.0 mg/kg/injection, schedule: Q01DX011 (ip), vehicle: carboxymethylcellulose (CMC)); 91 % of control (dose: 60.0 mg/kg/injection, schedule: Q01DX011 (ip), vehicle: carboxymethylcellulose (CMC)); 114 % of control (dose: 120.0 mg/kg/injection, schedule: Q01DX011 (ip), vehicle: carboxymethylcellulose (CMC)).
`Cn1c(=O)c2c(nc(C#N)n2C)n(C)c1=O`: the T/C under setting [5] is 104 % of control; the T/C (dose: 75.0 mg/kg/injection, schedule: Q01DX011 (ip), vehicle: methylcellulose (MC)) was 102 % of control; the T/C (dose: 225.0 mg/kg/injection, schedule: Q01DX011 (ip), vehicle: methylcellulose (MC)) was 58 % of control.
As for `NNC(=O)c1ccncc1`, the T/C reads like this: (dose: 15.13 mg/kg/injection, schedule: Q01DX011 (ip), vehicle: carboxymethylcellulose (CMC)) 116 % of control; (dose: 17.62 mg/kg/injection, schedule: Q01DX011 (ip), vehicle: carboxymethylcellulose (CMC)) 160 % of control; (dose: 19.25 mg/kg/injection, schedule: Q01DX011 (ip), vehicle: carboxymethylcellulose (CMC)) 112 % of control; (dose: 30.25 mg/kg/injection, schedule: Q01DX011 (ip), vehicle: carboxymethylcellulose (CMC)) 109 % of control; (dose: 38.5 mg/kg/injection, schedule: Q01DX011 (ip), vehicle: carboxymethylcellulose (CMC)) 78 % of control; (dose: 60.5 mg/kg/injection, schedule: Q01DX011 (ip), vehicle: carboxymethylcellulose (CMC)) 121 % of control. In addition, the T/C was 178 % of control (dose: 70.5 mg/kg/injection, schedule: Q01DX011 (ip), vehicle: carboxymethylcellulose (CMC)); 122 % of control (dose: 77.0 mg/kg/injection, schedule: Q01DX011 (ip), vehicle: carboxymethylcellulose (CMC)); 100 % of control (dose: 121.0 mg/kg/injection, schedule: Q01DX011 (ip), vehicle: carboxymethylcellulose (CMC)); 202 % of control (dose: 141.0 mg/kg/injection, schedule: Q01DX011 (ip), vehicle: carboxymethylcellulose (CMC)).
As to `C=CC(=O)NCO`, the T/C is, setting by setting: (dose: 100.0 mg/kg/injection, schedule: Q01DX011 (ip), vehicle: other) 86 % of control; (dose: 150.0 mg/kg/injection, schedule: Q01DX011 (ip), vehicle: other) 89 % of control; (dose: 200.0 mg/kg/injection, schedule: Q01DX011 (ip), vehicle: other) 88 % of control.
As to `CCn1cnc2c(SC)nc(N)nc21`, the T/C was 74 % of control (dose: 6.25 mg/kg/injection, schedule: Q01DX011 (ip), vehicle: methylcellulose (MC)); 30 % of control (dose: 12.5 mg/kg/injection, schedule: Q01DX011 (ip), vehicle: methylcellulose (MC)); 31 % of control under setting [5]; 7 % of control under setting [6]; 1 % of control under setting [7].
With `CS(=O)(=O)OCCC(=O)N1CCN(C(=O)CCOS(C)(=O)=O)CC1`, the T/C by setting is: (dose: 9.4 mg/kg/injection, schedule: Q01DX011 (ip), vehicle: methylcellulose (MC)) 73 % of control; (dose: 22.0 mg/kg/injection, schedule: Q01DX011 (ip), vehicle: methylcellulose (MC)) 24 % of control and 45 % of control; (dose: 37.5 mg/kg/injection, schedule: Q01DX011 (ip), vehicle: methylcellulose (MC)) 15 % of control; (dose: 44.0 mg/kg/injection, schedule: Q01DX011 (ip), vehicle: methylcellulose (MC)) 9 % of control and 18 % of control; (dose: 88.0 mg/kg/injection, schedule: Q01DX011 (ip), vehicle: methylcellulose (MC)) 3 % of control and 6 % of control.
For the compound `Nc1nc(SC2CCCCC2)c2[nH]cnc2n1`, the T/C by setting is: (dose: 1.0 mg/kg/injection, schedule: Q01DX011 (ip), vehicle: carboxymethylcellulose (CMC)) 60 % of control; (dose: 5.0 mg/kg/injection, schedule: Q01DX011 (ip), vehicle: carboxymethylcellulose (CMC)) 83 % of control; under setting [1], 4 % of control and 9 % of control; under setting [2], 1 % of control; under setting [3], 1 % of control; (dose: 160.0 mg/kg/injection, schedule: Q01DX011 (ip), vehicle: carboxymethylcellulose (CMC)) 2 % of control.
